Literature values as cited in patent US20040047946A1, “Methods and formulations useful for lowering the cholesterol content of egg yolk” (Kapac, LLC, priority 2002, published 2004).

How the values were obtained:
hens = hens fed 0.0265% lovastatin for 35 days
chickens = chickens fed 2% and 4% sitosterol emulsified with carboxymethyl cellulose

Row | SMILES | less cholesterol in eggs than those from hens that received only a corn-soybean diet (hens) | cholesterol and total sterol content of the egg (chickens) | level of egg yolk sitosterol (chickens)
1 | CC[C@H](C)C(=O)O[C@H]1C[C@@H](C)C=C2C=C[C@H](C)[C@H](CC[C@@H]3C[C@@H](O)CC(=O)O3)[C@H]21 [lovastatin] | 15% |  | 
2 | CC[C@H](CC[C@@H](C)[C@H]1CC[C@H]2[C@@H]3CC=C4C[C@@H](O)CC[C@]4(C)[C@H]3CC[C@]12C)C(C)C [sitosterol] |  | significant reduction | increased
